What was measured:
human V1a receptor = molecular target: T1, human V1a receptor (Homo sapiens, UniProt P37288); experiment: Cellular in vitro assay for determining vasopressin receptor activity, V1a receptor cell line (CHO, aequorin luminescence); assay type: cell-based; conditions: for IC50: CHO cell line transfected with human V1a receptor, [Arg]-vasopressin at EC50 concentration, read-out: IC50 hV1a; for ratio IC50 hV2/hV1a: selectivity ratio IC50 hV2 / IC50 hV1a
T1 construct: expressed in transfected cells; host or cells: CHO K1 (ATCC), also stably transfected with a modified aequorin
T1 sequence (P37288 whole entry): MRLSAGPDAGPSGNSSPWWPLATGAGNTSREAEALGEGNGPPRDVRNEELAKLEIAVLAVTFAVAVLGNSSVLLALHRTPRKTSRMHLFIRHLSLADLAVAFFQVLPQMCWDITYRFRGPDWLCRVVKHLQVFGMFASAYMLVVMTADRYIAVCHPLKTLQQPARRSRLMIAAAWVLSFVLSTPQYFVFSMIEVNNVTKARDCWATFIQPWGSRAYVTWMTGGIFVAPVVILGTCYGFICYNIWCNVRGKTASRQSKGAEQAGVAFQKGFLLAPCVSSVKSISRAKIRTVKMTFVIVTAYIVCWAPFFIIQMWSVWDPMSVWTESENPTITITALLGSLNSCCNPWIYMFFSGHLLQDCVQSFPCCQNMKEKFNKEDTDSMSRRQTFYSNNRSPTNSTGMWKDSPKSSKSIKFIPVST
Outline: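 Antagonism is measured in stable CHO K1 transfectants coexpressing the Gαq-coupled receptor and a calcium-sensitive aequorin photoprotein. Agonist challenge uses [Arg]-vasopressin at EC50 after a 10-minute compound exposure; IC50 values come from the luminescence signal.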

human V2 receptor = molecular target: T2, human V2 receptor (Homo sapiens, UniProt P30518); experiment: Cellular in vitro assay for determining vasopressin receptor activity, V2 receptor cell line (CHO, CRE-luciferase); assay type: cell-based; conditions: CHO cell line transfected with human V2 receptor; [Arg8]-vasopressin at EC50 concentration; read-out: IC50 hV2
T2 construct: expressed in transfected cells; host or cells: CHO K1 (ATCC) expressing firefly luciferase under a CRE-responsive promoter
T2 sequence (P30518 whole entry): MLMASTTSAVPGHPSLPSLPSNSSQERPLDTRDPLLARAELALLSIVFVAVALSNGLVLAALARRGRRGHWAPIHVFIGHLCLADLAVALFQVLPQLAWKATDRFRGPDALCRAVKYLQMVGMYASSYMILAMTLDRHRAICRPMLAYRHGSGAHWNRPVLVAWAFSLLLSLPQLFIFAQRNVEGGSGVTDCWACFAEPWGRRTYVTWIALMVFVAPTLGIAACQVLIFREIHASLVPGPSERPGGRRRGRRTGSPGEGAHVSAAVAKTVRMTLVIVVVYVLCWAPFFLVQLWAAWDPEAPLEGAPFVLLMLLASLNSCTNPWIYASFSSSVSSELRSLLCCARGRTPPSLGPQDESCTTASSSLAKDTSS

| Structure (SMILES) | IC50 (human V1a receptor) | ratio IC50 hV2/hV1a (human V1a receptor) | IC50 (human V2 receptor) |
| --- | --- | --- | --- |
| O=C1CN(C(=O)c2nc(Cn3nc(-c4ccc(Cl)cc4)n(C[C@H](O)C(F)(F)F)c3=O)nn2-c2cnccc2C(=O)NCCC(F)(F)F)CCN1 [Example 511, 3-{3-({3-(4-Chlorophenyl)-5-oxo-4-[(2S)-3,3,3-trifluoro-2-hydroxypropyl]-4,5-dihydro-1H-1,2,4-triazol-1-yl}methyl)-5-[(3-oxopiperazin-1-yl)carbonyl]-1H-1,2,4-triazol-1-yl}-N-(3,3,3-trifluoropropyl)pyridine-4-carboxamide] | 1.65 µM | 0.9 | 1.45 µM |
| O=C1CN(C(=O)c2nc(Cn3nc(-c4ccc(Cl)cc4)n(C[C@H](O)C(F)(F)F)c3=O)nn2-c2ncccc2C(=O)NCCC(F)(F)F)CCN1 [Example 512, 2-{3-({3-(4-Chlorophenyl)-5-oxo-4-[(2S)-3,3,3-trifluoro-2-hydroxypropyl]-4,5-dihydro-1H-1,2,4-triazol-1-yl}methyl)-5-[(3-oxopiperazin-1-yl)carbonyl]-1H-1,2,4-triazol-1-yl}-N-(3,3,3-trifluoropropyl)pyridine-3-carboxamide] | 3.6 µM | 0.3 | 1.25 µM |
| O=C1CN(C(=O)c2nc(Cn3nc(-c4ccc(Cl)cc4)n(C[C@H](O)C(F)(F)F)c3=O)nn2-c2ncccc2C(=O)NC2CC2)CCN1 [Example 513, 2-{3-({3-(4-Chlorophenyl)-5-oxo-4-[(2S)-3,3,3-trifluoro-2-hydroxypropyl]-4,5-dihydro-1H-1,2,4-triazol-1-yl}methyl)-5-[(3-oxopiperazin-1-yl)carbonyl]-1H-1,2,4-triazol-1-yl}-N-cyclopropylpyridine-3-carboxamide] | 2.4 µM | 2.3 | 5.45 µM |
| O=C1CN(C(=O)c2nc(Cn3nc(-c4ccc(Cl)cc4)n(C[C@H](O)C(F)(F)F)c3=O)nn2-c2cnccc2C(=O)NC2CC2)CCN1 [Example 514, 3-{3-({3-(4-Chlorophenyl)-5-oxo-4-[(2S)-3,3,3-trifluoro-2-hydroxypropyl]-4,5-dihydro-1H-1,2,4-triazol-1-yl}methyl)-5-[(3-oxopiperazin-1-yl)carbonyl]-1H-1,2,4-triazol-1-yl}-N-cyclopropylpyridine-4-carboxamide] | 0.34 µM | 3.7 | 1.25 µM |
| CC1(NC(=O)c2ccncc2-n2nc(Cn3nc(-c4ccc(Cl)cc4)n(C[C@H](O)C(F)(F)F)c3=O)nc2C(=O)N2CCNC(=O)C2)CC1 [Example 515, 3-{3-({3-(4-Chlorophenyl)-5-oxo-4-[(2S)-3,3,3-trifluoro-2-hydroxypropyl]-4,5-dihydro-1H-1,2,4-triazol-1-yl}methyl)-5-[(3-oxopiperazin-1-yl)carbonyl]-1H-1,2,4-triazol-1-yl}-N-(1-methylcyclopropyl)pyridine-4-carboxamide] | 2 µM | 1.1 | 2.25 µM |
| O=C(NCC(F)(F)F)c1ccncc1-n1nc(Cn2nc(-c3ccc(Cl)cc3)n(C[C@H](O)C(F)(F)F)c2=O)nc1C(=O)N1CCS(=O)(=O)CC1 [Example 518, 3-{3-({3-(4-Chlorophenyl)-5-oxo-4-[(2S)-3,3,3-trifluoro-2-hydroxypropyl]-4,5-dihydro-1H-1,2,4-triazol-1-yl}methyl)-5-[(1,1-dioxidothiomorpholin-4-yl)carbonyl]-1H-1,2,4-triazol-1-yl}-N-(2,2,2-trifluoroethyl)pyridine-4-carboxamide] | 0.955 µM | 0.5 | 0.48 µM |
| O=C(NCCC(F)(F)F)c1ccncc1-n1nc(Cn2nc(-c3ccc(Cl)cc3)n(C[C@H](O)C(F)(F)F)c2=O)nc1C(=O)N1CCS(=O)(=O)CC1 [Example 519, 3-{3-({3-(4-Chlorophenyl)-5-oxo-4-[(2S)-3,3,3-trifluoro-2-hydroxypropyl]-4,5-dihydro-1H-1,2,4-triazol-1-yl}methyl)-5-[(1,1-dioxidothiomorpholin-4-yl)carbonyl]-1H-1,2,4-triazol-1-yl}-N-(3,3,3-trifluoropropyl)pyridine-4-carboxamide] | 1.35 µM | 0.7 | 0.925 µM |
| O=C(NC1CC1)c1ccncc1-n1nc(Cn2nc(-c3ccc(Cl)cc3)n(C[C@H](O)C(F)(F)F)c2=O)nc1C(=O)N1CCS(=O)(=O)CC1 [Example 520, 3-{3-({3-(4-Chlorophenyl)-5-oxo-4-[(2S)-3,3,3-trifluoro-2-hydroxypropyl]-4,5-dihydro-1H-1,2,4-triazol-1-yl}methyl)-5-[(1,1-dioxidothiomorpholin-4-yl)carbonyl]-1H-1,2,4-triazol-1-yl}-N-cyclopropylpyridine-4-carboxamide] | 0.295 µM | 2.3 | 0.665 µM |
| CC1(NC(=O)c2ccncc2-n2nc(Cn3nc(-c4ccc(Cl)cc4)n(C[C@H](O)C(F)(F)F)c3=O)nc2C(=O)N2CCS(=O)(=O)CC2)CC1 [Example 521, 3-{3-({3-(4-Chlorophenyl)-5-oxo-4-[(2S)-3,3,3-trifluoro-2-hydroxypropyl]-4,5-dihydro-1H-1,2,4-triazol-1-yl}methyl)-5-[(1,1-dioxidothiomorpholin-4-yl)carbonyl]-1H-1,2,4-triazol-1-yl}-N-(1-methylcyclopropyl)pyridine-4-carboxamide] | 6.25 µM | 0.1 | 0.885 µM |
| O=C1CN(C(=O)c2nc(Cn3nc(-c4ccc(Cl)cc4)n(C[C@H](O)C(F)(F)F)c3=O)nn2-c2ncccc2C(=O)NCC(F)(F)F)CCN1 [Example 524, 2-{3-({3-(4-Chlorophenyl)-5-oxo-4-[(2S)-3,3,3-trifluoro-2-hydroxypropyl]-4,5-dihydro-1H-1,2,4-triazol-1-yl}methyl)-5-[(3-oxopiperazin-1-yl)carbonyl]-1H-1,2,4-triazol-1-yl}-N-(2,2,2-trifluoroethyl)pyridine-3-carboxamide] | 4.65 µM | 0.7 | 3.45 µM |
| CC1(NC(=O)c2cccnc2-n2nc(Cn3nc(-c4ccc(Cl)cc4)n(C[C@H](O)C(F)(F)F)c3=O)nc2C(=O)N2CCNC(=O)C2)CC1 [Example 525, 2-{3-({3-(4-Chlorophenyl)-5-oxo-4-[(2S)-3,3,3-trifluoro-2-hydroxypropyl]-4,5-dihydro-1H-1,2,4-triazol-1-yl}methyl)-5-[(3-oxopiperazin-1-yl)carbonyl]-1H-1,2,4-triazol-1-yl}-N-(1-methylcyclopropyl)pyridine-3-carboxamide] | 9.4 µM | 0.7 | 6.55 µM |
| O=C(NCC(F)(F)F)c1cccnc1-n1nc(Cn2nc(-c3ccc(Cl)cc3)n(C[C@H](O)C(F)(F)F)c2=O)nc1C(=O)N1CCS(=O)(=O)CC1 [Example 528, 2-{3-({3-(4-Chlorophenyl)-5-oxo-4-[(2S)-3,3,3-trifluoro-2-hydroxypropyl]-4,5-dihydro-1H-1,2,4-triazol-1-yl}methyl)-5-[(1,1-dioxidothiomorpholin-4-yl)carbonyl]-1H-1,2,4-triazol-1-yl}-N-(2,2,2-trifluoroethyl)pyridine-3-carboxamide] | 0.0755 µM | 10.3 | 0.78 µM |
| O=C(NCCC(F)(F)F)c1cccnc1-n1nc(Cn2nc(-c3ccc(Cl)cc3)n(C[C@H](O)C(F)(F)F)c2=O)nc1C(=O)N1CCS(=O)(=O)CC1 [Example 529, 2-{3-({3-(4-Chlorophenyl)-5-oxo-4-[(2S)-3,3,3-trifluoro-2-hydroxypropyl]-4,5-dihydro-1H-1,2,4-triazol-1-yl}methyl)-5-[(1,1-dioxidothiomorpholin-4-yl)carbonyl]-1H-1,2,4-triazol-1-yl}-N-(3,3,3-trifluoropropyl)pyridine-3-carboxamide] | 0.0975 µM | 29.7 | 2.9 µM |
| O=C(NC1CC1)c1cccnc1-n1nc(Cn2nc(-c3ccc(Cl)cc3)n(C[C@H](O)C(F)(F)F)c2=O)nc1C(=O)N1CCS(=O)(=O)CC1 [Example 530, 2-{3-({3-(4-Chlorophenyl)-5-oxo-4-[(2S)-3,3,3-trifluoro-2-hydroxypropyl]-4,5-dihydro-1H-1,2,4-triazol-1-yl}methyl)-5-[(1,1-dioxidothiomorpholin-4-yl)carbonyl]-1H-1,2,4-triazol-1-yl}-N-cyclopropylpyridine-3-carboxamide] | 0.53 µM | 9.9 | 5.25 µM |
| CC1(NC(=O)c2cccnc2-n2nc(Cn3nc(-c4ccc(Cl)cc4)n(C[C@H](O)C(F)(F)F)c3=O)nc2C(=O)N2CCS(=O)(=O)CC2)CC1 [Example 531, 2-{3-({3-(4-Chlorophenyl)-5-oxo-4-[(2S)-3,3,3-trifluoro-2-hydroxypropyl]-4,5-dihydro-1H-1,2,4-triazol-1-yl}methyl)-5-[(1,1-dioxidothiomorpholin-4-yl)carbonyl]-1H-1,2,4-triazol-1-yl}-N-(1-methylcyclopropyl)pyridine-3-carboxamide] | 0.0965 µM | 29.5 | 2.85 µM |
| CC(C)(N)CNC(=O)c1nc(Cn2nc(-c3ccc(Cl)cc3)n(C[C@H](O)C(F)(F)F)c2=O)nn1-c1cnccc1C(=O)NCC(F)(F)F [Example 534, 3-{5-[(2-Amino-2-methylpropyl)carbamoyl]-3-({3-(4-chlorophenyl)-5-oxo-4-[(2S)-3,3,3-trifluoro-2-hydroxypropyl]-4,5-dihydro-1H-1,2,4-triazol-1-yl}methyl)-1H-1,2,4-triazol-1-yl}-N-(2,2,2-trifluoroethyl)pyridine-4-carboxamide] | 0.18 µM | 20.1 | 3.62 µM |

Source: patent publication US11173151B2, “Substituted triazole derivatives and uses thereof” (BAYER AKTIENGESELLSCHAFT, priority 2017, dated 2021)
